Among the data in patent US20070179161A1, “Pyrazolopyrimidine compounds and their use in medicine” (VERNALIS (CAMBRIDGE) LIMITED., priority 2003, published 2007) are IC50 values, retold here.

Structures can show the parent of a compound that is named as a salt.

Broadly, the IC50 is the concentration that gives 50% inhibition.

Format in all cases: biochemical
For experiment [1], the target named is CDK-2 enzyme, complexed with cyclin A (Homo sapiens, UniProt P24941). The experiment is described as follows: CDK2 enzyme inhibition assay (33P phosphorylation of peptide […], filter plate). The settings on record: CDK-2/cyclin A, 0.1 mM ATP, 40 min at 30° C. Summed up: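 Cyclin A–complexed CDK2 (0.4 U/ml) incubated with inhibitor, 0.03 mM peptide, 0.1 mM ATP plus 33P-γ-ATP in HEPES pH 7.5, 7.5 mM Mg acetate, 0.1 mg/ml BSA, 40 min at 30 °C. Stopped with phosphoric acid; phosphorylated peptide captured on filter plates and counted by scintillation.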

The target in another experiment is T1, PDK1 enzyme (Homo sapiens, UniProt O15530).
T1 sequence (O15530 1-556): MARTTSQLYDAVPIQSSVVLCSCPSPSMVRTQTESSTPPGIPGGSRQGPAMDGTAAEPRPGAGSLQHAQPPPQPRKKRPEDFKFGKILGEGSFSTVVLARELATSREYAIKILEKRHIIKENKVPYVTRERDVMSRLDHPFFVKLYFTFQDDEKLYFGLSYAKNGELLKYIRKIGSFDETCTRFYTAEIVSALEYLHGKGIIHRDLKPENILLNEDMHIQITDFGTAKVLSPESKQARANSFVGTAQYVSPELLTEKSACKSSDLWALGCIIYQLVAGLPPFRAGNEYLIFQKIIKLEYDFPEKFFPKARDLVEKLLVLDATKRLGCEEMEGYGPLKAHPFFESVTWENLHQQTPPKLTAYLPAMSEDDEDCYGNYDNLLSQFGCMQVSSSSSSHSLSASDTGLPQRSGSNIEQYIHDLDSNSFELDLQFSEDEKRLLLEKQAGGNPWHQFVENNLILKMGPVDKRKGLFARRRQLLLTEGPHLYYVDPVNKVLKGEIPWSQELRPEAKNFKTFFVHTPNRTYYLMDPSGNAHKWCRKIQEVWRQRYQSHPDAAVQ
Briefly: PDK1 kinase inhibition assay (33P phosphorylation of synthetic peptide, filter plate). Particulars: 0.01 mM ATP, 60 min at 30° C.; read-out: PDK1 IC50. Summed up: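 PDK1 and inhibitor incubated 60 min at 30° C with 0.01 mM ATP plus 33P-γ-ATP, 0.075 mM peptide, 7.5 mM Mg acetate, 0.1 mg/ml BSA in 0.05 M Tris.HCl pH 7.5. Stopped with phosphoric acid; phosphorylated peptide captured on filter plate and counted by scintillation.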

The target in a further experiment is T2, GST-Chk1 enzyme (Homo sapiens, UniProt O14757).
T2 sequence (O14757 1-476): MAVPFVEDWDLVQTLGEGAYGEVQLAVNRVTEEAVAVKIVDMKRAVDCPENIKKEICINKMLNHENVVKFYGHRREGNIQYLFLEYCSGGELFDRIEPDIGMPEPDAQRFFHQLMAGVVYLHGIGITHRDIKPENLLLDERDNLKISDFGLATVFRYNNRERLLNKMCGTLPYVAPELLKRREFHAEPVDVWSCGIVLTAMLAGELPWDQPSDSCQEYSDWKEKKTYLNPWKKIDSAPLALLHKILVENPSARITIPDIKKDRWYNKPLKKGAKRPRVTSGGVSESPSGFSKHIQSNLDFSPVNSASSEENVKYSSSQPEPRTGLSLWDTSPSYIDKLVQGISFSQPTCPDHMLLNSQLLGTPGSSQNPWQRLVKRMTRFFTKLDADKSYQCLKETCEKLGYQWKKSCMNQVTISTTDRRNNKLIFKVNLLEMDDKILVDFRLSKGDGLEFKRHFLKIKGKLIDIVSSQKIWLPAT
The experiment is described as follows: Chk1 kinase inhibition assay (33P phosphorylation of Chktide, filter plate). The settings on record: 0.01 mM ATP, 11 nM GST-Chk1, 40 minutes at 30° C.; read-out: Chk1 IC50. Summed up:
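Inhibitor and enzyme reacted 40 min at 30 °C, then stopped with 50 mM phosphoric acid. Phosphorylated peptide captured on filter plates and quantified by scintillation counting.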

In the case of `CC(C)COc1cc(Nc2ccc(S(=O)(=O)N(C)CCO)cc2)n2ncc(C(C)C)c2n1` [Example 42], the IC50 in experiment [1] was 0.17 µM; on PDK1 enzyme it was > 200 µM; on GST-Chk1 enzyme, > 200 µM.
For the compound `CC(C)c1cnn2c(Nc3ccc(S(=O)(=O)NCCN(C)C)cc3)cc(OC3CCCCC3)nc12` [Example 91], the values for the IC50 (in experiment [1]; on PDK1 enzyme; at GST-Chk1 enzyme) were 0.881 µM, > 200 µM and 5.36 µM, respectively.
`N[C@H]1CC[C@H](Nc2cc(Nc3ccc(Oc4ccccc4)cc3)n3ncc(Cl)c3n2)CC1` [Example 187]: the IC50 was 0.054 µM in experiment [1], 2 µM on PDK1 enzyme and 2 µM at GST-Chk1 enzyme.
`CC(C)c1cnn2c(Nc3ccc(S(=O)(=O)N(C)C)cc3)cc(OCC3CCCN3C)nc12` (stereo not drawn) [Example 65]: the IC50 in experiment [1] was 1.09 µM; at PDK1 enzyme, > 200 µM; on GST-Chk1 enzyme it was > 200 µM.
As to `CC(C)c1cnn2c(Nc3ccc(S(=O)(=O)N(C)C)cc3)cc(C(=O)NCCN3CCOCC3)nc12` [Example 121], the IC50 was 9.3 µM in experiment [1], > 200 µM at PDK1 enzyme and > 200 µM at GST-Chk1 enzyme.
Take `NS(=O)(=O)c1ccc(Nc2cc(Cl)nc3ccnn23)cc1` [Example 12]: the IC50 was 0.72 µM in experiment [1], > 200 µM at PDK1 enzyme and > 200 µM on GST-Chk1 enzyme.
In the case of `CC(C)COc1cc(Nc2ccc(S(=O)(=O)N(C)C)cc2)n2ncc(C(C)C)c2n1` [Example 40], the IC50 in experiment [1] was 1.16 µM; at PDK1 enzyme, > 200 µM; on GST-Chk1 enzyme, > 200 µM.
On to `O=S(=O)(Nc1nccs1)c1ccc(Nc2cc(OC3CCCCC3)nc3ccnn23)cc1` [Example 14], for which the figures for the IC50 (in experiment [1]; on PDK1 enzyme; at GST-Chk1 enzyme) were 0.59 µM, 24.6 µM and > 200 µM, respectively.
For the compound `CC(C)c1cnn2c(Nc3ccc(S(=O)(=O)N(C)C)cc3)cc(NC3CCC(N)C3)nc12` (stereo not drawn) [Example 150], the IC50 in experiment [1] was 0.478 µM; at PDK1 enzyme, 13 µM; on GST-Chk1 enzyme, 2 µM.
In the case of `NS(=O)(=O)c1ccc(Nc2ccnc3ccnn23)cc1` [Example 20], the IC50 is 1.76 µM in experiment [1], > 200 µM at PDK1 enzyme and > 200 µM at GST-Chk1 enzyme.
As for `CC(C)c1cnn2c(Nc3ccc(S(=O)(=O)N(C)C)cc3)cc(N(C)C3CCN(C)CC3)nc12` [Example 87], the IC50 in experiment [1] is 0.84 µM; on PDK1 enzyme it was > 200 µM; at GST-Chk1 enzyme, 16.3 µM.
As for `Cc1cccc(-c2cc(NCc3ccncc3)n3nccc3n2)c1` [Example 7], the IC50 in experiment [1] was 7.19 µM; at PDK1 enzyme it was > 200 µM; on GST-Chk1 enzyme it was > 200 µM.
Turning to `CN(C)S(=O)(=O)c1ccc(Nc2cc(N[C@H]3CC[C@H](N)CC3)nc3c(Br)cnn23)cc1` [Example 31, 3-bromo-5-(trans-4-aminocyclohexylamino)-7-(4-(N,N-dimethylsulphonamido)phenylamino)pyrazolo[1,5-a]pyrimidine], the IC50 in experiment [1] was found to be 0.008 µM; at PDK1 enzyme, 0.325 µM; at GST-Chk1 enzyme, 1.27 µM.
As to `CC(C)c1cnn2c(Nc3ccc(S(=O)(=O)N(C)C)cc3)cc(C(=O)O)nc12` [Example 117], the IC50 in experiment [1] is 23.3 µM; on PDK1 enzyme, > 200 µM; on GST-Chk1 enzyme it was > 200 µM.
Turning to `CC(C)c1cnn2c(Nc3ccc(S(=O)(=O)N(C)C)cc3)cc(N3CCC(CN)CC3)nc12` [Example 95], the IC50 in experiment [1] stood at 1.86 µM; at PDK1 enzyme, 64.2 µM; at GST-Chk1 enzyme, 24.9 µM.
For the compound `CC(C)c1cnn2c(Nc3ccc(S(=O)(=O)N(C)CCO)cc3)cc(Cl)nc12` [Example 34], the IC50 was 0.127 µM in experiment [1], > 200 µM on PDK1 enzyme and > 200 µM at GST-Chk1 enzyme.
Regarding `CCN(CC)c1cc(Nc2ccc(S(=O)(=O)N(C)CCO)cc2)n2ncc(C(C)C)c2n1` [Example 51], the IC50 is 0.259 µM in experiment [1], > 200 µM at PDK1 enzyme and > 200 µM at GST-Chk1 enzyme.
For the compound `O=S(=O)(Nc1ccccn1)c1ccc(Nc2cc(Cl)nc3ccnn23)cc1` [Example 10], the IC50 was 1.63 µM in experiment [1], > 200 µM at PDK1 enzyme and > 200 µM at GST-Chk1 enzyme.
Regarding `CC(C)c1cnn2c(Nc3ccc(S(=O)(=O)N(C)C)cc3)cc(N[C@H]3CC[C@H](N(C)C)CC3)nc12` [Example 162], the IC50 in experiment [1] came out at 0.815 µM; at PDK1 enzyme, 5 µM; on GST-Chk1 enzyme it was 12 µM.
Regarding `O=S(=O)(Nc1nccs1)c1ccc(Nc2cc(Cl)nc3ccnn23)cc1` [Example 11], the values for the IC50 (in experiment [1]; at PDK1 enzyme; at GST-Chk1 enzyme) were 1.31 µM, > 200 µM and > 200 µM, respectively.
With `Oc1cccc(-c2cc(Nc3ccccc3)n3nccc3n2)c1` [Example 6], the figures for the 50% inhibitory concentration (IC50) (in experiment [1]; on PDK1 enzyme; at GST-Chk1 enzyme) were 5.65 µM, > 200 µM and > 200 µM, respectively.
Turning to `CC(C)c1cnn2c(Nc3ccc(S(=O)(=O)N(C)C)cc3)cc(N3CCC(C(N)=O)CC3)nc12` [Example 73], the values for the IC50 (in experiment [1]; at PDK1 enzyme; at GST-Chk1 enzyme) were 1.48 µM, > 200 µM and > 200 µM, respectively.
As for `CC(C)c1cnn2c(Nc3ccc(S(=O)(=O)N(C)CCN(C)C)cc3)cc(Cl)nc12` [Example 60], the IC50 in experiment [1] was 0.04 µM; on PDK1 enzyme, > 200 µM; on GST-Chk1 enzyme, > 200 µM.
Regarding `CCN(CC)c1cc(Nc2ccc(S(=O)(=O)N(C)C)cc2)n2ncc(C(C)C)c2n1` [Example 71], the IC50 in experiment [1] is 0.655 µM; at PDK1 enzyme it was > 200 µM; on GST-Chk1 enzyme it was > 200 µM.
`CC(C)c1cnn2c(Nc3ccc(S(=O)(=O)N(C)CCN(C)C)cc3)cc(N[C@H]3CC[C@H](N)CC3)nc12` [Example 99]: the figures for the IC50 (in experiment [1]; on PDK1 enzyme; at GST-Chk1 enzyme) were 0.128 µM, 6.91 µM and 0.953 µM, respectively.
For the compound `CC(C)c1cnn2c(Nc3ccc(S(=O)(=O)N(C)C)cc3)cc(C(=O)NCCN(C)C)nc12` [Example 122], the IC50 in experiment [1] is 3.17 µM; on PDK1 enzyme, > 200 µM; at GST-Chk1 enzyme it was > 200 µM.
`CC(C)c1cnn2c(Nc3ccc(S(=O)(=O)NCCO)cc3)cc(Cl)nc12` [Example 37]: the IC50 in experiment [1] is 1.51 µM; at PDK1 enzyme, > 200 µM; on GST-Chk1 enzyme, > 200 µM.
Regarding `COCCN(C)S(=O)(=O)c1ccc(Nc2cc(Cl)nc3c(C(C)C)cnn23)cc1` [Example 96], the results for the IC50 (in experiment [1]; on PDK1 enzyme; on GST-Chk1 enzyme) were 0.124 µM, > 200 µM and > 200 µM, respectively.
On to `Fc1ccc(Nc2cc(-c3ccccc3)nc3ccnn23)cc1` [Example 1, 5-Phenyl-7-(4-fluorophenylamino)pyrazolo[1,5-a]pyrimidine hydrochloride], for which the IC50 in experiment [1] was 6.09 µM; on PDK1 enzyme, > 200 µM; on GST-Chk1 enzyme, > 200 µM.
Consider `CC(C)c1cnn2c(Nc3ccc(S(=O)(=O)N(C)C)cc3)cc(N3CCC(C(=O)O)CC3)nc12` [Example 78], for which the IC50 in experiment [1] is 4.79 µM; on PDK1 enzyme, > 200 µM; at GST-Chk1 enzyme it was > 200 µM.
For the compound `CC(C)COc1cc(Nc2ccc(S(=O)(=O)N(C)CCN(C)C)cc2)n2ncc(C(C)C)c2n1` [Example 72], the IC50 was 1.28 µM in experiment [1], > 200 µM at PDK1 enzyme and 8.4 µM at GST-Chk1 enzyme.
Take `CC(C)c1cnn2c(Nc3ccc(S(=O)(=O)N(C)C)cc3)cc(N[C@H]3CC[C@H](NC(N)=O)CC3)nc12` [Example 141]: the figures for the IC50 (in experiment [1]; on PDK1 enzyme; on GST-Chk1 enzyme) were 0.142 µM, 9 µM and 13 µM, respectively.
Turning to `CCc1cnn2c(Nc3ccc(S(=O)(=O)N(C)C)cc3)cc(Cl)nc12` [Example 52], the IC50 is 0.239 µM in experiment [1], > 200 µM on PDK1 enzyme and > 200 µM at GST-Chk1 enzyme.
`CN(C)S(=O)(=O)c1ccc(Nc2cc(Cl)nc3c(-c4ccsc4)cnn23)cc1` [Example 156]: the IC50 was 24.9 µM in experiment [1], 10 µM on PDK1 enzyme and > 200 µM at GST-Chk1 enzyme.
